# Read-outs that look alike come from different tables or passages of the source.
# Tests used:
# PSMA [1] = test system: PSMA; parameters: method as in PMID 28450562; conditions: affinity for PSMA ref 53; cited from earlier work
# PSMA [2] = target: PSMA; parameters: method as in PMID 24983957; conditions: cited from earlier work
# PSMA [3] = target: T1, PSMA (Homo sapiens, UniProt Q04609); assay: Competitive binding on LNCaP cell membranes with [131I]I-MIP1095 as competitive radioligand; conditions: [131I]I-MIP1095 radioligand, 2 h at 37 °C
# T1 construct: host or cells: LNCaP cell membranes
# Procedure: Cells from prostate cancer carcinomas: LNCaP and PC3, were isolated like previously described. The cells were harvested using 1 mL/flask of Trypsin-EDTA solution and centrifuged (1500 rpm for 15 min (LNCaP) and 1300 rpm for 6 min (PC3)). Received cell sediment was resuspended in 9.7 mM NaHCO3 containing 0.3 mM NaH2PO4 and incubated for 30 min at 4 °C. The solution was dispensed on 1.5 mL Eppendorf and centrifuged (13,500 rpm for 30 min). The supernatant was removed, the pellet was resuspended in 50 mM Tris-HCl Buffer (pH 7.4) and homogenized using a syringe with a thin needle. The solution was centrifuged (13,500 rpm for 30 min), and the final pellet was suspended in 50 mM Tris-HCl buffer (pH 7.4) and transferred to −70 °C.
# The LNCaP cell membranes were distributed (in four replicates) in the constant amount on special MultiScreen™ 96 well assay plates. 100 µL of un-supplemented RPMI 1640 medium and 50 µL of increasing concentration of the unlabeled PSMA inhibitors was added to each well. As a control, 50 µL of PBS in 100 µL of media was used. After 15 min incubation at 37 °C, 50 µL of [^131I]I-MIP-1095 was added. Plates were incubated for 2 h at 37 °C. After an appropriate time, the supernatant solution was filtered under vacuum, and the membranes were washed twice with PBS solution. Filters and membranes were extruded to the tubes using MultiScreen Multiple Punch. The radioactivity of the filters was measured using a Wallac Wizard 1470 γ counter. The IC50 was evaluated and determined using GraphPad Prism 9.4 statistic program. As a control, PSMA-11 was used.
# T1 sequence (Q04609 whole entry): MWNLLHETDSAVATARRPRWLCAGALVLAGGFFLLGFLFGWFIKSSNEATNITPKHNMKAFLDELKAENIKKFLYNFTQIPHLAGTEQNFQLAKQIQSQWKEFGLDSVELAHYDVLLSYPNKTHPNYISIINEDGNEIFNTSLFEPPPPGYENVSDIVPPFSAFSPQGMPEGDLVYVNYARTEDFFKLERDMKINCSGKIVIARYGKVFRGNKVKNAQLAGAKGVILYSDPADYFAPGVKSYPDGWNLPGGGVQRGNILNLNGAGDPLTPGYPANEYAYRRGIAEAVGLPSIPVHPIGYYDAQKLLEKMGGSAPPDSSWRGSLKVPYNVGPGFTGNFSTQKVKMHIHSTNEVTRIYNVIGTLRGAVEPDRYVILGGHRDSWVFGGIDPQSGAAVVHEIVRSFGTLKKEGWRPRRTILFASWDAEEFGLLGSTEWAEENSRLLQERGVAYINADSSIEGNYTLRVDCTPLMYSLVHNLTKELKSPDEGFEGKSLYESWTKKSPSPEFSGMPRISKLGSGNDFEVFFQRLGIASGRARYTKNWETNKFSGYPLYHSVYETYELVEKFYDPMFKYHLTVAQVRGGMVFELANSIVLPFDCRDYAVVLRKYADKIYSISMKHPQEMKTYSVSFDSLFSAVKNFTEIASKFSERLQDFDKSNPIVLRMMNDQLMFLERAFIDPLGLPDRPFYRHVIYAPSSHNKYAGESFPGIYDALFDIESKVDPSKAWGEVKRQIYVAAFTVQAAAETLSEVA
Structure (SMILES),IC50 (PSMA [3]) [nM],also measured
"O=C(O)CC[C@H](NC(=O)N[C@@H](CCCCNC(=O)Nc1ccc([131I])cc1)C(=O)O)C(=O)O [[^131I]I-MIP-1095, (2S)-2-({[(1S)-1-carboxy-5-({[4-[¹³¹I]iodophenyl]carbamoyl}amino)pentyl]carbamoyl}amino)pentanedioic acid]",–,IC50 (PSMA [1]): 0.3 nM
"O.O=C([O-])CN(CCN(CC(=O)[O-])Cc1cc(CCC(=O)O)ccc1O)Cc1cc(CCC(=O)NCCCCCC(=O)NCCCC[C@H](NC(=O)N[C@@H](CCC(=O)O)C(=O)O)C(=O)O)ccc1[O-].[Ga+3] [[^68Ga]Ga-PSMA-11, Glu-NH-CO-Lys-(ahx)-HBED-CC-[^68Ga]Ga]",–,Kd (PSMA [2]; literature value ref 15): 11.4 ± 7.1 nM
"NNc1ccc(C(=O)NC[C@H]2CC[C@H](C(=O)N[C@@H](Cc3c[nH]c4ccccc34)C(=O)NCCCC[C@H](NC(=O)N[C@@H](CCC(=O)O)C(=O)O)C(=O)O)CC2)cn1 [PSMA-T4, (S)-2-{3-[(S)-5-[(S)-3-(1H-Indol-3-yl)-2-({(1r,4r)-4-[(6-hydrazino-nicotinoylamino)methyl]cyclohexyl}carbonylamino)propionylamino]-1-carboxypentyl]ureido}glutaric acid]",79.5,–
O=C(O)CCc1ccc(O)c(CN(CCN(CC(=O)O)Cc2cc(CCC(=O)NCCCCCC(=O)NCCCC[C@H](NC(=O)N[C@@H](CCC(=O)O)C(=O)O)C(=O)O)ccc2O)CC(=O)O)c1 [PSMA-11],715,Kd (PSMA [2]): 11.4 nM
"NNc1ccc(C(=O)NCCCCCC(=O)N[C@@H](Cc2c[nH]c3ccccc23)C(=O)NCCCC[C@H](NC(=O)N[C@@H](CCC(=O)O)C(=O)O)C(=O)O)cn1 [PSMA-T3, Glu-CO-Lys-LTrp-6Ahx-HYNIC]",74.6,–
